Test results published in PMC11378297, “Discovery and Profiling of New Multimodal Phenylglycinamide Derivatives as Potent Antiseizure and Antinociceptive Drug Candidates” (ACS Chemical Neuroscience, 2024).

How the values were obtained:
[1] = test system: OXPT-induced tactile allodynia, mice; test: oxaliplatin (OXPT)-induced peripheral neuropathy, von Frey test
Method: In experimental conditions, these mechanisms trigger mechanical allodynia, which can be observed as a decrease in the pain threshold, as assessed by the von Frey test.[37]
We tested (R)-31 at the doses of 50, 75, and 100 mg/kg (Figure 7C).
The experimental groups consisted of 10 adult male Albino Swiss mice (CD-1, 18–25 g). Each animal was tested only once. Immediately after the assay, the animals were sacrificed by cervical dislocation. Behavioral measurements were observed by trained observers. […] The tested materials were administered intraperitoneally half an hour before the test, after being suspended in a 1% aqueous solution of Tween-80. 30 min before the test, the animals in the control group (negative control) received an appropriate dose of the vehicle (Tween-80, 1% aqueous solution, i.p.).

[2] = target: T1, Cav1.2 (h) calcium ion channel (Homo sapiens, UniProt Q13936); test: Cav1.2 (h) calcium ion channel cell-based antagonist calcium flux assay; conditions: HEK293, human recombinant HEK-293 cell, read-out: % inhibition of control agonist response
T1 construct: Eurofins
T1 sequence (Q13936 whole entry): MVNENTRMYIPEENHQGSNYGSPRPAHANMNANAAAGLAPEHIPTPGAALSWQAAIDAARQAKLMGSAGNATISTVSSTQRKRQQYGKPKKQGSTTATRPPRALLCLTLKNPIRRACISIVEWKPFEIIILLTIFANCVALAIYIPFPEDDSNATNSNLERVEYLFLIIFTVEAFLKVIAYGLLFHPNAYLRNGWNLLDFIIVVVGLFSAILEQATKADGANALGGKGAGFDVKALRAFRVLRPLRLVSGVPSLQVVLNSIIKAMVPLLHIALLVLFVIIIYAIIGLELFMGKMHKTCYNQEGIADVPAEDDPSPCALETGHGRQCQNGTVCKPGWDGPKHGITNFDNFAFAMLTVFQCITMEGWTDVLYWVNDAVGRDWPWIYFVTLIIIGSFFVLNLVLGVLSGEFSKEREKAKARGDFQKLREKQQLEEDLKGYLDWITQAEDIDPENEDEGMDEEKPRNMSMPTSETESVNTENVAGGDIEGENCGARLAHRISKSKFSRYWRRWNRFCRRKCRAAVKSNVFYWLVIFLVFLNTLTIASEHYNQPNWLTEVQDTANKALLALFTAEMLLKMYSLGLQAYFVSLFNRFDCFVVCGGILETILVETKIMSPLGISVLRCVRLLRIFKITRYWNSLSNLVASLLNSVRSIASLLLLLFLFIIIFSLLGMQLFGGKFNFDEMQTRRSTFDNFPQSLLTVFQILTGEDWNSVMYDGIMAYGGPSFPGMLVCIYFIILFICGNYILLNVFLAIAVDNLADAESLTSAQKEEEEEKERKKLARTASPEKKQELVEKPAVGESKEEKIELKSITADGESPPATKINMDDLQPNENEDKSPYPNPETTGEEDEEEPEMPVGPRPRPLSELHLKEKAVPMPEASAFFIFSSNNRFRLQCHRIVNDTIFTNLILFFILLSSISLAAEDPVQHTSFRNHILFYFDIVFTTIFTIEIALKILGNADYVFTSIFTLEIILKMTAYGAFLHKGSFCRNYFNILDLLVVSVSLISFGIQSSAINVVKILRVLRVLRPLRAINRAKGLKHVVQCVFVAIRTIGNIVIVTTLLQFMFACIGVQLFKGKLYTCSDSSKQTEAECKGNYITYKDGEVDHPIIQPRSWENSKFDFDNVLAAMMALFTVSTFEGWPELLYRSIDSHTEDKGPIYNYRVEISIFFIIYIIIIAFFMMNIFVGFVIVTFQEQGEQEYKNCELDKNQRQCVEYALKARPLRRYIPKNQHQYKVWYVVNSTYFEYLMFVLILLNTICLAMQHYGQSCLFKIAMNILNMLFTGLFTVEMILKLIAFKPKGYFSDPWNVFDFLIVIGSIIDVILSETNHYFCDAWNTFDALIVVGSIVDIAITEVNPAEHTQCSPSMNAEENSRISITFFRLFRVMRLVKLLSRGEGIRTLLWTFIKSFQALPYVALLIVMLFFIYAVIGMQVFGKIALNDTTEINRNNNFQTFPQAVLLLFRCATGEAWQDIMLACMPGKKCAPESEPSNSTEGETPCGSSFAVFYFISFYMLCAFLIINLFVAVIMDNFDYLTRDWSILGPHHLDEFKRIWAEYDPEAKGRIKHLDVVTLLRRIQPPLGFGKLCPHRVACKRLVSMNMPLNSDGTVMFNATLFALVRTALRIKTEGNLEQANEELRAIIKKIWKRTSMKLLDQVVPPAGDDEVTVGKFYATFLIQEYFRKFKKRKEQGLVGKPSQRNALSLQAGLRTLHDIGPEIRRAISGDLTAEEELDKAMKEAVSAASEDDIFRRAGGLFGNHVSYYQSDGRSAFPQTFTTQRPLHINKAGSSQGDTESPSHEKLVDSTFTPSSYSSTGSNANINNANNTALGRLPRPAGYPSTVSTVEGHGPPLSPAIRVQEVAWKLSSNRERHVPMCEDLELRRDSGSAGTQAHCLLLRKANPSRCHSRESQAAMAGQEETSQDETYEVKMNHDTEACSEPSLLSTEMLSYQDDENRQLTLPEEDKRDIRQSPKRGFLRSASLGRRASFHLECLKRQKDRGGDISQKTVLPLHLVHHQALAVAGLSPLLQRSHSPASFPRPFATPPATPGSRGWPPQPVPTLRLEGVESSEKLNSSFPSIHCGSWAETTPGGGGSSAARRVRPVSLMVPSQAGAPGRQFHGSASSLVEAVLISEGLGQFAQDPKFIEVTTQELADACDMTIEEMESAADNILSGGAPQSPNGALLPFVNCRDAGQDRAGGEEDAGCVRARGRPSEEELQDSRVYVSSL
T1 sequence (Q08289 whole entry partner): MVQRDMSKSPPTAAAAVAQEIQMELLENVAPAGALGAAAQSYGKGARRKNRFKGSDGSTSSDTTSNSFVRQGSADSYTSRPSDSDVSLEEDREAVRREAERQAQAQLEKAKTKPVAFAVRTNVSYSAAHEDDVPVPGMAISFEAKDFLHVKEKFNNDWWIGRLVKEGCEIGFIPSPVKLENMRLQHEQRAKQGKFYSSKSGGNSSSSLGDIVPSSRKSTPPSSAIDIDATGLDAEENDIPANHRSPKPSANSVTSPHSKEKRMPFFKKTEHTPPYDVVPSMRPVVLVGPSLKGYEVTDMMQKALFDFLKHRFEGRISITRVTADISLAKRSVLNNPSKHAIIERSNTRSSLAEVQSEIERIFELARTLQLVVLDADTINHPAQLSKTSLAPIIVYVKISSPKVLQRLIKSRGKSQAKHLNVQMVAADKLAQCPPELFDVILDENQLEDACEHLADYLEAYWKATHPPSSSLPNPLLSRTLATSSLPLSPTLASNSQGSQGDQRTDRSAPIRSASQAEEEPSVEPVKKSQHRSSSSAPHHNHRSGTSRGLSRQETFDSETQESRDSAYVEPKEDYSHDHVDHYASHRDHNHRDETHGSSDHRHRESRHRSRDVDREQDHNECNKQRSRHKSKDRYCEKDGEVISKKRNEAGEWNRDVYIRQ
T1 sequence (P54289 25-946 partner limits assumed): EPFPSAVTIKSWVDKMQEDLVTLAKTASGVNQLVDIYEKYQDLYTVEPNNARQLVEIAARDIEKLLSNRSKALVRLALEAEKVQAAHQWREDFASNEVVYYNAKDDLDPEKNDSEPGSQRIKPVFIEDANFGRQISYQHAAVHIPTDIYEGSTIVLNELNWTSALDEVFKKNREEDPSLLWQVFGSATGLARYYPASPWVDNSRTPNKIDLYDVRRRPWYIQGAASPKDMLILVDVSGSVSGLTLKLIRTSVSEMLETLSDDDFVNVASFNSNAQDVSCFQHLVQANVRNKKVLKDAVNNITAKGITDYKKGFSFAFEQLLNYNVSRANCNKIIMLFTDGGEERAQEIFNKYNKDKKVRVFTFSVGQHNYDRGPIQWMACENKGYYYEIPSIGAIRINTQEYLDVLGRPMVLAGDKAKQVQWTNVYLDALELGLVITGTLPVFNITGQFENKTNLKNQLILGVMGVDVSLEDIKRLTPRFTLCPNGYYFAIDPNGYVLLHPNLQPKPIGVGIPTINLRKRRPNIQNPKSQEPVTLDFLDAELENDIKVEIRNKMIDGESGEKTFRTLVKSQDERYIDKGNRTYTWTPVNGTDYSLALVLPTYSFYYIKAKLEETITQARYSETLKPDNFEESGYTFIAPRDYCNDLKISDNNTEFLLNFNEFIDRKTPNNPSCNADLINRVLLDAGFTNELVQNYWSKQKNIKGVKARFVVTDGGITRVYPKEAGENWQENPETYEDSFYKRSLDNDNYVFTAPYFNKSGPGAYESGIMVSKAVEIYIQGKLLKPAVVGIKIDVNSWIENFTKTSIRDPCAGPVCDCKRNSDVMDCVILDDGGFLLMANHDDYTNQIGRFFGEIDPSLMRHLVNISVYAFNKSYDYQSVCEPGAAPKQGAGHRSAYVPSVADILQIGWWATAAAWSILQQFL
T1 sequence (P54289 947-1103 partner limits assumed): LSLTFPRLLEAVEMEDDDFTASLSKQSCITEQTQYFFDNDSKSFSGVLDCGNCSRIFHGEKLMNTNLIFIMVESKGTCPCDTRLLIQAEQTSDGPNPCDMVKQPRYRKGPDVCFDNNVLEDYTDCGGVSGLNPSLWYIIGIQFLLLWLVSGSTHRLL
Method: The current body of literature consistently reports that both sodium (Navx) and Cav1.2 calcium ion channels can be involved in the pathogenesis of epilepsy[67]−[69] and neuropathic pain.[70]−[73] […] Therefore, we performed binding and functional studies toward sodium (site 2) and calcium Cav1.2 channels at concentrations of 10 μM for (R)-31−(R)-33.
Using previously described testing methodologies, binding/functional tests were conducted on a commercial basis at Eurofins Laboratories (Poitiers, France) and Eurofins Panlabs Discovery Services Taiwan, Ltd. (New Taipei City, Taiwan); see Table S9 for more information.
Table S9. Radioligand binding and functional assays.
Cav1.2 (L-type) (h) calcium ion channel cell-based antagonist calcium flux assay […]
Assays were performed commercially in Eurofins Laboratories (Poitiers, France) or Eurofins Panlabs Discovery Services
Taiwan, Ltd. (New Taipei City, Taiwan).

[3] = test system: ivPTZ seizure threshold, mice; test: timed ivPTZ seizure threshold test; type: in vivo, mouse; conditions: for effect on the threshold for the onset of any of the studied end points (ivPTZ): 30 min before test
Method: The effects of (R)-31, (R)-32, and (R)-33 on the thresholds for the first myoclonic twitch, generalized clonus with loss of righting reflex, and forelimb tonus in the timed ivPTZ seizure test in mice were evaluated in the following step of pharmacological characterization. […] It should be noted that the ivPTZ seizure test is an extremely sensitive method for determining the seizure threshold in rodents.[47] In this model, (R)-31 at a dose of 50 mg/kg had no effect on the threshold for the onset of any of the studied end points. […] Compounds (R)-32 and (R)-33 were tested at a dose of 50 mg/kg only. […] (R)-33 was ineffective in the ivPTZ seizure threshold test.
Figure 2 Effect of eutomers (R)-31, (R)-32, and (R)-33 on the thresholds for the onset of (A) myoclonic twitch, (B) generalized clonus, and (C) forelimb tonic extension in the timed ivPTZ test in mice. (R)-31, (R)-32, and (R)-33 were administered, i.p., 30 min before the seizure test. Control animals received vehicle. Data are presented as means + SD in mg/kg of PTZ necessary to induce each of the three end points (n = 7–14 animals). Statistical significance was evaluated using Student’s t-test: **p < 0.01, ****p < 0.0001 vs the vehicle-treated group (GraphPad Prism 8.4.3).
30 min prior to the testing, eutomers (R)-31, (R)-32, and (R)-33 were given i.p. after being suspended in a 1% Tween 80 solution. To reduce the number of animals utilized, neuromuscular strength measurements were made right before the seizure threshold test. The grip-strength test and the timed ivPTZ test experimental protocols were covered in full elsewhere.[87]

[4] = metabolic stability in human liver microsomes (HLMs); type: in vitro ADME; conditions: for remaining at 2 h: human, human liver microsomes, 120 min incubation, TRIS buffer pH 7.4, 37 °C; for metabolic pathway: metabolites M1–M3 (one cell per metabolite)
body temperature, mice = test: capsaicin-induced hypothermia test / rectal temperature; type: in vivo, mouse; conditions: 50 mg/kg i.p.
Method: In this study, we used the capsaicin-induced hypothermia model in mice to evaluate the effect of eutomers (R)-31, (R)-32, and (R)-33 on body temperature and to provide more data related to their on-target activity (i.e., antagonism of TRPV1) (Figure S5A–D). Capsaicin given i.p. at a dose of 5 mg/kg produced a marked decrease in rectal temperature at 15 min post injection (p < 0.0001). The temperature returned to normal values within 30–60 min after capsaicin injection. […] None of the tested compounds reversed the capsaicin-induced hypothermia.
The changes in body temperature in the capsaicin-induced hypothermia model were evaluated as described previously. Eutomers (R)-31, (R)-32, and (R)-33 were suspended in a 1% Tween 80 and administered i.p. 15 min before injection of capsaicin (5 mg/kg, i.p.). The corresponding vehicles (1% DMSO or 1% Tween 80) were given to the control animals. Using an electronic thermometer (ThermoWorks, Alpine, Utah, USA), changes in the mouse’s rectal temperature were recorded by inserting the rectal probe approximately 2 cm into the mouse’s rectum. After −15, 0, 15, 30, 60, 90, 120, and 180 min, the measurements were collected. Subsequently, the variations in rectal temperature between the baseline ([…] for the groups receiving compounds and BCTC in conjunction with the vehicle, or […] for the groups receiving the vehicle, compounds, and BCTC in combination with the capsaicin) and the corresponding time point ΔT (°C) were computed and examined.
Figure S5. Acute effects of BCTC (A), (R)-31 (B), (R)-32 (C), and (R)-33 (D) on rectal temperature in the capsaicin-induced test in mice. Capsaicin (CPS) or vehicle (1% DMSO) were injected i.p. at 0 min, as indicated by the arrows.
BCTC, (R)-31, (R)-32, and (R)-33 were suspended in 1% Tween 80 and administered i.p. 15 min before CPS or vehicle injection. The temperature was measured at -15, 0, 15, 30, 60, 90, 120, and 180 min. Since body temperature returned to control values 60 min after CPS injection, subsequent measurements are not shown.
Data are presented as the mean differences (ΔT) in rectal temperature from 0 to -15 min (time point 0 min), from 15 to 0 min (time point 15 min), from 30 to 0 min (time point 30 min), and from 60 to 0 min (time point 60 min); n = 6–8 animals/group. Statistical significance was evaluated using one-way ANOVA with Tukey’s post hoc test: […]
(1 picture or pasted object on this page, not shown here)

| SMILES | pain threshold, early phase (3 h after OXPT), % of the initial value/baseline ([1]; 50 mg/kg i.p.) | pain threshold, early phase (3 h after OXPT), % of the initial value/baseline ([1]; 75 mg/kg i.p.) | pain threshold, late phase (7 days after OXPT), % of the baseline ([1]; 75 mg/kg i.p.) | inhibition at 10 µM [2] | effect on the threshold for the onset of any of the studied end points (ivPTZ) ([3]; 50 mg/kg i.p.) | remaining at 2 h [4] | effect on body (rectal) temperature, administered alone (body temperature, mice) | also measured |
| --- | --- | --- | --- | --- | --- | --- | --- | --- |
| CC(=O)N[C@@H](C(=O)N1CCN(c2cccc(C(F)(F)F)c2)CC1)c1ccccc1 [(R)-31, (R)-N-(2-Oxo-1-phenyl-2-(4-(3-(trifluoromethyl)phenyl)piperazin-1-yl)ethyl)acetamide] | 114.5% | 93% | 87% | 75% | had no effect | 85.2% | did not significantly affect body temperature | pain threshold, early phase (3 h after OXPT), % of the initial value ([1]; 100 mg/kg i.p.): 78%; pain threshold, late phase (7 days after OXPT), % of the baseline ([1]; 100 mg/kg i.p.): 77%; threshold for generalized clonic seizure (ivPTZ) ([3]; 100 mg/kg i.p., p < 0.01): significantly raised the threshold; metabolic pathway ([4]; metabolite 404.19 (M2)): dehydrogenation; metabolic pathway ([4]; metabolite 422.22 (M3)): hydroxylation; metabolic pathway ([4]; metabolite 454.01 (M1)): triple-hydroxylation |
| CC(=O)N[C@@H](C(=O)N1CCN(c2cccc(OC(F)(F)F)c2)CC1)c1ccccc1 [(R)-32, (R)-N-(2-Oxo-1-phenyl-2-(4-(3-(trifluoromethoxy)phenyl)piperazin-1-yl)ethyl)acetamide] | 90% | 109% | 108% | 31% |  | 78.5% | did not significantly affect body temperature | pain threshold, early phase (3 h after OXPT), % of the baseline ([1]; 25 mg/kg i.p.): 102%; pain threshold, late phase (7 days after OXPT), % of the baseline ([1]; 25 mg/kg i.p.): 68%; pain threshold, late phase (7 days after OXPT), % of the baseline ([1]; 50 mg/kg i.p.): 94%; threshold for the onset of forelimb tonus (ivPTZ) ([3]; 50 mg/kg i.p.): did not affect the threshold; threshold for the first myoclonic twitch (ivPTZ) ([3]; 50 mg/kg i.p., p < 0.0001): significantly increased the thresholds; threshold for generalized clonus (ivPTZ) ([3]; 50 mg/kg i.p., p < 0.01): significantly increased the thresholds; metabolic pathway ([4]; metabolite 420.22 (M2)): dehydrogenation; metabolic pathway ([4]; metabolite 438.25 (M1)): hydroxylation |
| CC(=O)N[C@@H](C(=O)N1CCN(c2cccc(SC(F)(F)F)c2)CC1)c1ccccc1 [(R)-33, (R)-N-(2-Oxo-1-phenyl-2-(4-(3-((trifluoromethyl)thio)phenyl)piperazin-1-yl)ethyl)acetamide] |  |  |  | 49% | ineffective | 70.3% | caused a significant drop in rectal temperature | metabolic pathway ([4]; metabolite 436.21 (M2)): dehydrogenation; metabolic pathway ([4]; metabolite 454.08 (M3)): hydroxylation |
